# pIC50: −log10 of the molar value.
# How the values were obtained:
# p38MAPKγ (MAPK12) = biological target: T1, p38MAPKγ (MAPK12) (Homo sapiens, UniProt P53778); experiment: p38 MAPKγ enzyme inhibition (Z-LYTE FRET); format: biochemical; details: Table 2B, unit inferred; read-out: p38 MAPKγ (Enzyme Profile)
# T1 construct: purchased Life Technologies
# T1 sequence (P53778 1-367): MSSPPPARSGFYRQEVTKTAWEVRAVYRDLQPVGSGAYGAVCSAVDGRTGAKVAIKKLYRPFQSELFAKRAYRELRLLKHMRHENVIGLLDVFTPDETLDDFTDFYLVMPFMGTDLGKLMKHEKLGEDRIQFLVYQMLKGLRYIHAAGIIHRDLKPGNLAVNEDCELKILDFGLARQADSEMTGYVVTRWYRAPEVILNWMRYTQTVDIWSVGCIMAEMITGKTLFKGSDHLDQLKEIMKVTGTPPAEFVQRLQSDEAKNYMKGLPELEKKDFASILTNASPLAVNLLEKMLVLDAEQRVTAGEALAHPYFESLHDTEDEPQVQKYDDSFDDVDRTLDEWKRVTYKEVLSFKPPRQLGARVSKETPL
# Summary of the method: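 Enzyme (added at 800 ng/mL) was preincubated 2 h at RT with compound (solutions of 40 to 0.0012 μg/mL), then FRET peptide (8 μM) and ATP (400 μM), both as added, were reacted 1 h at RT. Protease development followed for 1 h; phosphorylation was read as the coumarin/fluorescein emission ratio.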
# [1] = biological target: T2, p38 MAPKα isoform (MAPK14) (Homo sapiens, UniProt Q16539); experiment: p38 MAPKα enzyme inhibition (Z-LYTE FRET); format: biochemical; details: Table 2B, unit inferred; read-out: p38 MAPKα (Enzyme Profile)
# T2 construct: purchased Life Technologies
# T2 sequence (Q16539 whole entry, canonical isoform): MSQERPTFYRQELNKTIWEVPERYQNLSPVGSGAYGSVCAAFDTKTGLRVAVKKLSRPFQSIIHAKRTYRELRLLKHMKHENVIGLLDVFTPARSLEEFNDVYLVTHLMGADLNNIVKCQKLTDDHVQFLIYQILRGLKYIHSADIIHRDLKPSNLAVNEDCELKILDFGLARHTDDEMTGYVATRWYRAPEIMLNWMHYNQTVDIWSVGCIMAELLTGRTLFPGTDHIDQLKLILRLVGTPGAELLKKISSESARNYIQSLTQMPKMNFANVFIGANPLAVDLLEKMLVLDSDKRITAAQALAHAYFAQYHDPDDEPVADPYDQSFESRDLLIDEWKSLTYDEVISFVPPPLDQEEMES
# Summary of the method: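 Activity was measured indirectly as phosphorylation of a MAPKAP-K2-derived FRET peptide. Enzyme (added at 40 ng/mL) was preincubated 2 h at RT with compound (added solutions 40–0.0012 μg/mL).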
pIC50 (p38MAPKγ (MAPK12)),pIC50 [1],Structure (SMILES)
6.59,7.37,"Cc1ccc(-n2nc(C(C)(C)C)cc2NC(=O)Nc2ccc(OCc3ccnc(Nc4cncc(C5CC5)n4)c3)c3ccccc23)cc1C [Example 145, 1-(3-(tert-butyl)-1-(3,4-dimethylphenyl)-1H-pyrazol-5-yl)-3-(4-((2-((6-cyclopropylpyrazin-2-yl)amino)pyridin-4-yl)methoxy)naphthalen-1-yl)urea]"
6.76,7.96,"COCc1cccc(-n2nc(C(C)(C)C)cc2NC(=O)Nc2ccc(OCc3ccnc(Nc4cnc(CN5CCOCC5)cn4)c3)c3ccccc23)c1 [Example 262, 1-(3-(tert-butyl)-1-(3-(methoxymethyl)phenyl)-1H-pyrazol-5-yl)-3-(4-((2-((5-(morpholinomethyl)pyrazin-2-yl)amino)pyridin-4-yl)methoxy)naphthalen-1-yl)urea]"
7.10,7.92,"CC(=O)N1CCN(C(=O)c2cnc(Nc3cc(COc4ccc(NC(=O)Nc5cc(C(C)(C)C)nn5-c5ccc(C)cc5)c5ccccc45)ccn3)cn2)CC1 [Example 240, 1-(4-((2-((5-(4-acetyl-piperazine-1-carbonyl)pyrazin-2-yl)amino)pyridin-4-yl)methoxy)naphthalen-1-yl)-3-(3-(tert-butyl)-1-(p-tolyl)-1H-pyrazol-5-yl)urea]"
6.37,7.44,"CCc1cnc(Nc2cc(COc3ccc(NC(=O)Nc4cc(C(C)(C)C)nn4-c4cccc(C)c4)c4ccccc34)ccn2)cn1 [Example 159, 1-(3-(tert-butyl)-1-(m-tolyl)-1H-pyrazol-5-yl)-3-(4-((2-((5-ethylpyrazin-2-yl)amino)pyridin-4-yl)methoxy)naphthalen-1-yl)urea]"
6.24,7.22,"CCc1cncc(Nc2cc(COc3ccc(NC(=O)Nc4cc(C(C)(C)C)nn4-c4cc(F)cc(OC)c4)c4ccccc34)ccn2)n1 [Example 211, 1-(3-(tert-butyl)-1-(3-fluoro-5-methoxyphenyl)-1H-pyrazol-5-yl)-3-(4-((2-((6-ethylpyrazin-2-yl)amino)pyridin-4-yl)methoxy)naphthalen-1-yl)urea]"
6.65,8.05,"COc1ccc(-n2nc(C(C)(C)C)cc2NC(=O)Nc2ccc(OCc3ccnc(Nc4cncc(N(C)C)n4)c3)c3ccccc23)cc1 [Example 104, 1-(3-(tert-butyl)-1-(4-methoxyphenyl)-1H-pyrazol-5-yl)-3-(4-((2-((6-(dimethyl-amino)pyrazin-2-yl)amino)pyridin-4-yl)methoxy)naphthalen-1-yl)urea]"
6.73,7.33,"Cc1ccc(-n2nc(C(C)(C)C)cc2NC(=O)Nc2ccc(OCc3ccnc(Nc4cnc(C(=O)N5CC[C@H](O)C5)cn4)c3)c3ccccc23)cc1 [Example 126, (S)-1-(3-(tert-butyl)-1-(p-tolyl)-1H-pyrazol-5-yl)-3-(4-((2-((5-(3-hydroxypyrrolidine-1-carbonyl)pyrazin-2-yl)amino)pyridin-4-yl)methoxy)naphthalen-1-yl)urea]"
6.61,7.89,"COc1ccc(-n2nc(C(C)(C)C)cc2NC(=O)Nc2ccc(OCc3ccnc(Nc4cnccn4)c3)c3ccccc23)cc1F [Example 148, 1-(3-(tert-butyl)-1-(3-fluoro-4-methoxyphenyl)-1H-pyrazol-5-yl)-3-(4-((2-(pyrazin-2-ylamino)pyridin-4-yl)methoxy)naphthalen-1-yl)urea]"
6.82,7.82,"Cc1ccc(-n2nc(C(C)(C)C)cc2NC(=O)Nc2ccc(OCc3ccnc(Nc4cncc(N5CCCC5)n4)c3)c3ccccc23)cc1 [Example 55, 1-(3-(tert-Butyl)-1-(p-tolyl)-1H-pyrazol-5-yl)-3-(4-((2-((6-(pyrrolidin-1-yl)pyrazin-2-yl)amino)pyridin-4-yl)methoxy)naphthalen-1-yl)urea]"
7.02,8.07,"Cc1ccc(-n2nc(C(C)(C)C)cc2NC(=O)Nc2ccc(OCc3ccnc(Nc4cnc(C(=O)N5CCS(=O)(=O)CC5)cn4)c3)c3ccccc23)cc1 [Example 243, 1-(3-(tert-butyl)-1-(p-tolyl)-1H-pyrazol-5-yl)-3-(4-((2-((5-(1,1-dioxidothiomor-pholine-4-carbonyl)pyrazin-2-yl)amino)pyridin-4-yl)methoxy)naphthalen-1-yl) urea]"
< 4.81,7.34,"Cc1ncc(Nc2cc(COc3ccc(NC(=O)Nc4cc(C(C)(C)C)nn4-c4cccc(Cl)c4)c4ccccc34)ccn2)nc1C [Example 179, 1-(3-(tert-butyl)-1-(3-chloro-phenyl)-1H-pyrazol-5-yl)-3-(4-((2-((5,6-dimethyl-pyrazin-2-yl)amino)pyridin-4-yl)methoxy)naphthalen-1-yl)urea]"
7.54,8.08,"CC(C)(C)c1cc(NC(=O)Nc2ccc(OCc3ccnc(Nc4cnccn4)c3)c3ccccc23)n(-c2cccc(CCO)c2)n1 [Example 237, 1-(3-(tert-butyl)-1-(3-(2-hydroxyethyl)phenyl)-1H-pyrazol-5-yl)-3-(4-((2-(pyrazin-2-ylamino)pyridin-4-yl)methoxy)naphthalen-1-yl)urea]"
6.31,7.68,COCCNC(=O)c1cnc(Nc2cc(COc3ccc(NC(=O)Nc4cc(C(C)(C)C)nn4-c4ccc(C)c(C)c4)c4ccccc34)ccn2)cn1 [Example 156]
6.62,7.85,"COCCNC(=O)c1cnc(Nc2cc(COc3ccc(NC(=O)Nc4cc(C(C)(C)C)nn4-c4cccc(C)c4)c4ccccc34)ccn2)cn1 [Example 152, 5-((4-(((4-(3-(3-(tert-butyl)-1-(m-tolyl)-1H-pyrazol-5-yl)ureido)naphthalen-1-yl)oxy)methyl)pyridin-2-yl)amino)-N-(2-methoxyethyl) pyrazine-2-carboxamide]"
7.29,> 9.41,"Cc1ccc(-n2nc(C(C)(C)C)cc2NC(=O)Nc2ccc(OCc3ccnc(Nc4cnc(C(=O)NCCC5CCN(C)CC5)cn4)c3)c3ccccc23)cc1 [Example 266, 5-((4-(((4-(3-(3-(tert-butyl)-1-(p-tolyl)-1H-pyrazol-5-yl)ureido)naphthalen-1-yl)oxy)methyl)pyridin-2-yl)amino)-N-(2-(1-methyl-piperidin-4-yl)ethyl) pyrazine-2-carboxamide]"
5.96,7.28,"CCc1ncc(Nc2cc(COc3ccc(NC(=O)Nc4cc(C(C)(C)C)nn4-c4ccc(C)cc4)c4ccccc34)ccn2)nc1CC [Example 139, 1-(3-(tert-butyl)-1-(p-tolyl)-1H-pyrazol-5-yl)-3-(4-((2-((5,6-diethylpyrazin-2-yl)amino)pyridin-4-yl)methoxy)naphthalen-1-yl) urea]"
< 4.82,7.30,"COc1cc(-n2nc(C(C)(C)C)cc2NC(=O)Nc2ccc(OCc3ccnc(Nc4cnc(C)c(C)n4)c3)c3ccccc23)ccc1C [Example 208, 1-(3-(tert-butyl)-1-(3-methoxy-4-methylphenyl)-1H-pyrazol-5-yl)-3-(4-((2-((5,6-dimethylpyrazin-2-yl)amino)pyridin-4-yl)methoxy)naphthalen-1-yl) urea]"
6.41,7.72,"COC1CN(C(=O)c2cnc(Nc3cc(COc4ccc(NC(=O)Nc5cc(C(C)(C)C)nn5-c5ccc(C)cc5)c5ccccc45)ccn3)cn2)C1 [Example 163, 1-(3-(tert-butyl)-1-(p-tolyl)-1H-pyrazol-5-yl)-3-(4-((2-((5-(3-methoxyazetidine-1-carbonyl)pyrazin-2-yl)amino)pyridin-4-yl)methoxy)naphthalen-1-yl) urea]"
< 4.81,7.09,"CCc1ccc(-n2nc(C(C)(C)C)cc2NC(=O)Nc2ccc(OCc3ccnc(Nc4cnc(C)c(C)n4)c3)c3ccccc23)cc1 [Example 251, 1-(3-(tert-butyl)-1-(4-ethyl-phenyl)-1H-pyrazol-5-yl)-3-(4-((2-((5,6-dimethylpyrazin-2-yl)amino)pyridin-4-yl)methoxy)naphthalen-1-yl) urea]"
< 4.86,7.37,"COc1cc(C)cc(-n2nc(C(C)(C)C)cc2NC(=O)Nc2ccc(OCc3ccnc(Nc4cnc(C(=O)N5CCCC5)cn4)c3)c3ccccc23)c1 [Example 227, 1-(3-(tert-butyl)-1-(3-methoxy-5-methylphenyl)-1H-pyrazol-5-yl)-3-(4-((2-((5-(pyrrolidine-1-carbonyl)pyrazin-2-yl)amino)pyridin-4-yl)methoxy)naphthalen-1-yl)urea]"
7.24,7.96,"Cc1cc(-n2nc(C(C)(C)C)cc2NC(=O)Nc2ccc(OCc3ccnc(Nc4cnccn4)c3)c3ccccc23)ccn1 [Example 265, 1-(3-(tert-butyl)-1-(2-methyl-pyridin-4-yl)-1H-pyrazol-5-yl)-3-(4-((2-(pyrazin-2-ylamino)pyridin-4-yl)methoxy)naphthalen-1-yl) urea]"
7.13,> 9.38,"Cc1ccc(-n2nc(C(C)(C)C)cc2NC(=O)Nc2ccc(OCc3ccnc(Nc4cnc(C(=O)NCCN(C)C)cn4)c3)c3ccccc23)cc1 [Example 268, 5-((4-(((4-(3-(3-(tert-butyl)-1-(p-tolyl)-1H-pyrazol-5-yl)ureido)naphthalen-1-yl)oxy)methyl)pyridin-2-yl)amino)-N-(2-(dimethylamino)ethyl) pyrazine-2-carboxamide]"

# Reference: patent publication US11142515B2, “Pyrazolyl-ureas as kinase inhibitors” (RESPIVERT LIMITED, priority 2014, dated 2021)
